According to the supplement of paper PMC10307832:

Tests used:
Experiment in all cases: relative viability (nuclei count vs DMSO), 5 days (fraction); higher = more cells survive
NCI-H2228 = tested on: NCI-H2228
Method in brief: (§1)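 Five library-drug doses in √10 steps were combined with a fixed anchor-drug dose, or a single drug was given alone, by pin tool to lung cancer cell lines in 1536-well plates the day after seeding. Nuclei were stained and counted after 5 days. Relative viability is the nuclei count in treated wells over that in vehicle wells, taken as the median of duplicate plates.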

SW 1573 = tested on: SW 1573
Method in brief: as §1

NCI-H1755 = tested on: NCI-H1755
Method in brief: as §1

NCI-H1792 = tested on: NCI-H1792
Method in brief: as §1

NCI-H650 = tested on: NCI-H650
Method in brief: as §1

NCI-H1915 = tested on: NCI-H1915
Method in brief: as §1

SK-LU-1 = tested on: SK-LU-1
Method in brief: as §1

HCC-366 = tested on: HCC-366
Method in brief: as §1

LCLC-103H = tested on: LCLC-103H
Method in brief: as §1

NCI-H1355 = tested on: NCI-H1355
Method in brief: as §1

NCI-H2347 = tested on: NCI-H2347
Method in brief: as §1

RERF-LC-KJ = tested on: RERF-LC-KJ
Method in brief: as §1

NCI-H23 = tested on: NCI-H23
Method in brief: as §1

NCI-H1993 = tested on: NCI-H1993
Method in brief: as §1

A-427 = tested on: A-427
Method in brief: as §1

UMC-11 = tested on: UMC-11
Method in brief: as §1

NCI-H1975 = tested on: NCI-H1975
Method in brief: as §1

NCI-H1734 = tested on: NCI-H1734
Method in brief: as §1

HCC-827 = tested on: HCC-827
Method in brief: as §1

LC-2-ad = tested on: LC-2-ad
Method in brief: as §1

Structure (SMILES): Cc1csc(=NC2CCCCC2)n1/N=C/c1ccc(O)c(O)c1O [MIM1] + CC(C)C[C@H](NC(=O)[C@H](Cc1ccccc1)NC(=O)c1cnccn1)B(O)O [Bortezomib] (partner 0.002 µM)
- relative viability (NCI-H2228; first compound 0.2 µM): 1.02
- relative viability (NCI-H2228; first compound 0.6325 µM): 1.09
- relative viability (NCI-H2228; first compound 2 µM): 1.09
- relative viability (NCI-H2228; first compound 6.325 µM): 0.414
- relative viability (NCI-H2228; first compound 20 µM): 0.246
- relative viability (SW 1573; first compound 0.2 µM): 0.937
- relative viability (SW 1573; first compound 0.6325 µM): 1.05
- relative viability (SW 1573; first compound 2 µM): 0.978
- relative viability (SW 1573; first compound 6.325 µM): 0.811
- relative viability (SW 1573; first compound 20 µM): 0.592
- relative viability (NCI-H1755; first compound 0.2 µM): 0.954
- relative viability (NCI-H1755; first compound 0.6325 µM): 0.949
- relative viability (NCI-H1755; first compound 2 µM): 0.893
- relative viability (NCI-H1755; first compound 6.325 µM): 0.776
- relative viability (NCI-H1755; first compound 20 µM): 0.377
- relative viability (NCI-H1792; first compound 0.2 µM): 0.852
- relative viability (NCI-H1792; first compound 0.6325 µM): 0.921
- relative viability (NCI-H1792; first compound 2 µM): 0.922
- relative viability (NCI-H1792; first compound 6.325 µM): 0.452
- relative viability (NCI-H1792; first compound 20 µM): 0.851
- relative viability (NCI-H650; first compound 0.2 µM): 0.769
- relative viability (NCI-H650; first compound 0.6325 µM): 0.73
- relative viability (NCI-H650; first compound 2 µM): 0.682
- relative viability (NCI-H650; first compound 6.325 µM): 0.832
- relative viability (NCI-H650; first compound 20 µM): 0.296
- relative viability (NCI-H1915; first compound 0.2 µM): 0.989
- relative viability (NCI-H1915; first compound 0.6325 µM): 0.857
- relative viability (NCI-H1915; first compound 2 µM): 0.898
- relative viability (NCI-H1915; first compound 6.325 µM): 0.461
- relative viability (NCI-H1915; first compound 20 µM): 0.725
- relative viability (SK-LU-1; first compound 0.2 µM): 1.05
- relative viability (SK-LU-1; first compound 0.6325 µM): 1.09
- relative viability (SK-LU-1; first compound 2 µM): 1.09
- relative viability (SK-LU-1; first compound 6.325 µM): 0.962
- relative viability (SK-LU-1; first compound 20 µM): 0.947
- relative viability (HCC-366; first compound 0.2 µM): 1.02
- relative viability (HCC-366; first compound 0.6325 µM): 0.994
- relative viability (HCC-366; first compound 2 µM): 0.793
- relative viability (HCC-366; first compound 6.325 µM): 0.998
- relative viability (HCC-366; first compound 20 µM): 0.0323
- relative viability (LCLC-103H; first compound 0.2 µM): 0.974
- relative viability (LCLC-103H; first compound 0.6325 µM): 0.959
- relative viability (LCLC-103H; first compound 2 µM): 1.05
- relative viability (LCLC-103H; first compound 6.325 µM): 0.955
- relative viability (LCLC-103H; first compound 20 µM): 0.938
- relative viability (NCI-H1355; first compound 0.2 µM): 1.26
- relative viability (NCI-H1355; first compound 0.6325 µM): 0.978
- relative viability (NCI-H1355; first compound 2 µM): 1.22
- relative viability (NCI-H1355; first compound 6.325 µM): 0.871
- relative viability (NCI-H1355; first compound 20 µM): 0.916
- relative viability (NCI-H2347; first compound 0.2 µM): 0.944
- relative viability (NCI-H2347; first compound 0.6325 µM): 1.03
- relative viability (NCI-H2347; first compound 2 µM): 0.939
- relative viability (NCI-H2347; first compound 6.325 µM): 0.798
- relative viability (NCI-H2347; first compound 20 µM): 0.578
- relative viability (RERF-LC-KJ; first compound 0.2 µM): 1.08
- relative viability (RERF-LC-KJ; first compound 0.6325 µM): 1.29
- relative viability (RERF-LC-KJ; first compound 2 µM): 0.852
- relative viability (RERF-LC-KJ; first compound 6.325 µM): 0.601
- relative viability (RERF-LC-KJ; first compound 20 µM): 0.264
- relative viability (NCI-H23; first compound 0.2 µM): 1.08
- relative viability (NCI-H23; first compound 2 µM): 0.702
- relative viability (NCI-H23; first compound 6.325 µM): 0.851
- relative viability (NCI-H23; first compound 20 µM): 0.167
- relative viability (NCI-H1993; first compound 0.2 µM): 1.18
- relative viability (NCI-H1993; first compound 0.6325 µM): 1.03
- relative viability (NCI-H1993; first compound 2 µM): 1.11
- relative viability (NCI-H1993; first compound 6.325 µM): 0.774
- relative viability (NCI-H1993; first compound 20 µM): 0.473
- relative viability (A-427; first compound 0.2 µM): 0.975
- relative viability (A-427; first compound 0.6325 µM): 0.865
- relative viability (A-427; first compound 2 µM): 0.972
- relative viability (A-427; first compound 6.325 µM): 0.847
- relative viability (A-427; first compound 20 µM): 0.234
- relative viability (UMC-11; first compound 0.2 µM): 0.646
- relative viability (UMC-11; first compound 0.6325 µM): 0.389
- relative viability (UMC-11; first compound 2 µM): 0.774
- relative viability (UMC-11; first compound 6.325 µM): 0.364
- relative viability (UMC-11; first compound 20 µM): 0.145
- relative viability (NCI-H1975; first compound 0.2 µM): 0.428
- relative viability (NCI-H1975; first compound 0.6325 µM): 0.381
- relative viability (NCI-H1975; first compound 2 µM): 0.377
- relative viability (NCI-H1975; first compound 6.325 µM): 0.231
- relative viability (NCI-H1975; first compound 20 µM): 0.221
- relative viability (NCI-H1734; first compound 0.2 µM): 1.12
- relative viability (NCI-H1734; first compound 0.6325 µM): 0.799
- relative viability (NCI-H1734; first compound 2 µM): 0.868
- relative viability (NCI-H1734; first compound 6.325 µM): 0.404
- relative viability (NCI-H1734; first compound 20 µM): 0.159
- relative viability (HCC-827; first compound 0.2 µM): 1.09
- relative viability (HCC-827; first compound 0.6325 µM): 0.9
- relative viability (HCC-827; first compound 2 µM): 1.07
- relative viability (HCC-827; first compound 6.325 µM): 0.402
- relative viability (HCC-827; first compound 20 µM): 0.465
- relative viability (LC-2-ad; first compound 0.2 µM): 1.06
- relative viability (LC-2-ad; first compound 0.6325 µM): 0.545
- relative viability (LC-2-ad; first compound 2 µM): 0.986
- relative viability (LC-2-ad; first compound 6.325 µM): 0.383
- relative viability (LC-2-ad; first compound 20 µM): 0.201
